Laboratory results: publication PMC5702897 (CPT: Pharmacometrics & Systems Pharmacology, 2017)
Like-named read-outs stand apart in the source and are kept apart here.

Experiments:
[1] = weakly basic compound; cited from earlier work
[2] = 15 to 450 mg given in fasted state; cited from earlier work
[3] = 40 mg single dose, healthy volunteers, cited from earlier work

## CS(=O)(=O)N1CCN(Cc2cc3nc(-c4cccc5[nH]ncc45)nc(N4CCOCC4)c3s2)CC1 [pictilisib, Pictilisib]
[1]
  pKa (first value): 4.2
[2]
  dose proportionality of PK: dose‐proportionality
PPI=0, Fasted
  Absorption rate constant (Ka), typical value: 2.63 h⁻¹
PPI=0, Fed
  Absorption rate constant (Ka), typical value: 0.297 h⁻¹
PPI=1, Fasted
  Absorption rate constant (Ka), typical value: 1.361 h⁻¹
PPI=1, Fed
  Absorption rate constant (Ka), typical value: 0.154 h⁻¹
Both PPI and food present
  Ka as percent of the fasted state value: about 6%
Healthy volunteers, 40 mg
  Absorption lag time (Tlag), typical value: 0.47 H
  Central volume (Vc/F), typical value: 304.9 L
  Peripheral volume (Vp/F), typical value: 175.9 L
human, in vivo
  BSV of absorption lag time (Tlag): 3.00%
  BSV of central volume (Vc/F): 37.7%
One value for all four states
  BSV of absorption rate constant (Ka): 51.9%
Regardless of food
  decrease in Ka with PPI: ~50%
[3]; fasted with PPI (rabeprazole)
  median AUCinf: 906 ng·h/mL
[3]; fasted
  median AUCinf: 1,760 ng/mL*h
[3]; fed (high-fat food)
  median AUCinf: 2,070 ng/mL*h
[3]; fed with PPI (rabeprazole)
  median AUCinf: 1,180 ng/mL*h
